≈ marks a conversion by molar mass, not a printed value.
target: T1, Short transient receptor potential channel 6 (Homo sapiens, UniProt Q9Y210); test: Inhibition of human TRPC6 expressed in HEK293 cells assessed as decrease in intracellular calcium level after 24 hrs by Fluo-4 dye-based FLIPR assay; type: cell-based; settings: not given
T1 sequence (Q9Y210 whole entry): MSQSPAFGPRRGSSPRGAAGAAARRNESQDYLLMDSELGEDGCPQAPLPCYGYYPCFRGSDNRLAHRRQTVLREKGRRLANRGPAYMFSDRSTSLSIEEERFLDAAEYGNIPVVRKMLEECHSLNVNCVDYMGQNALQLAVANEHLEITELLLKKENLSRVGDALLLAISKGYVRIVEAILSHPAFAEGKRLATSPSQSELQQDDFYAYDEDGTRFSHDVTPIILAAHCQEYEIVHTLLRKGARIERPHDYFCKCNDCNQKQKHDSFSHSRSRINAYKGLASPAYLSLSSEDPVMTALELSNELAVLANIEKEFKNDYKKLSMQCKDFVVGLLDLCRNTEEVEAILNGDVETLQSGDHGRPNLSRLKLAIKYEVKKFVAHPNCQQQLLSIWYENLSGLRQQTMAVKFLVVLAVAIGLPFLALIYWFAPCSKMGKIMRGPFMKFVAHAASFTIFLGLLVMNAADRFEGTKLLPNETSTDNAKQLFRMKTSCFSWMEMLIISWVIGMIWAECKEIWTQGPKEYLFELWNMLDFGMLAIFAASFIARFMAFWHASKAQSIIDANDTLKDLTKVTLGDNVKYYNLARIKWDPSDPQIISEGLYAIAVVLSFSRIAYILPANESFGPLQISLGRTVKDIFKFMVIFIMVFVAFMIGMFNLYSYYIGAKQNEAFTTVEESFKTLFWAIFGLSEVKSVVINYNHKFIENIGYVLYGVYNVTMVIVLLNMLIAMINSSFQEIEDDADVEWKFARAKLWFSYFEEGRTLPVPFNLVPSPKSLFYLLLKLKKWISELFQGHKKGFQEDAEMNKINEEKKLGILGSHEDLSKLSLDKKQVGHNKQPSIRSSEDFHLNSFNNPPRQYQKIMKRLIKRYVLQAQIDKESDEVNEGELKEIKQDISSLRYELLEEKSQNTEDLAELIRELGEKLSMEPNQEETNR

SMILES | IC50 [nM]
CO[C@H]1CC[C@@]2(C)[C@@H](C1)C[C@@H](N1CCC[C@@H](N)C1)[C@@H]2Oc1ccc(C#N)cc1 | 440
CO[C@@H]1CC[C@@]2(C)[C@@H](C1)C[C@@H](N1CCC[C@@H](N)C1)[C@@H]2Oc1ccc(C#N)cc1 | 52
N#Cc1ccc(O[C@@H]2CCC[C@H]2N2CCC[C@@H](N)C2)c(Cl)c1 | 660
C[C@]12CCCC[C@H]1C[C@@H](N1CCC[C@@H](N)C1)[C@@H]2Oc1ccc(C#N)cc1 | 37
N#Cc1ccc(O[C@@H]2CCC[C@H]2N2CCC[C@@H](N)C2)cc1 | 500
C[C@]12CCC(=O)C[C@H]1C[C@@H](N1CCC[C@@H](N)C1)[C@@H]2Oc1ccc(C#N)cc1 | 11
N#Cc1ccc(O[C@@H]2[C@@H]3[C@H](C[C@H]2N2CCC[C@@H](N)C2)[C@@H]2CC(=O)[C@H]3C2)cc1 | 8
C[C@]12CCC(F)=C[C@H]1C[C@@H](N1CCC[C@@H](N)C1)[C@@H]2Oc1ccc(C#N)cc1 | 3
CN(C)C(=O)/C=C1\CC[C@@]2(C)[C@@H](C1)C[C@@H](N1CCC[C@@H](N)C1)[C@@H]2Oc1ccc(C#N)cc1 (mixture of isomers) | 280
N#Cc1ccc(O[C@@H]2C3CCC(=O)[C@@H]3C[C@H]2N2CCC[C@@H](N)C2)cc1 (single isomer, unassigned) | 22

target: Voltage-gated inwardly rectifying potassium channel KCNH2 (Homo sapiens, UniProt Q12809); test: Inhibition of human ERG expressed in CHOK1 cells at holding potential of -80 mV after 5 mins by patch clamp assay; type: cell-based; settings: not given
Sequence (Q12809 whole entry): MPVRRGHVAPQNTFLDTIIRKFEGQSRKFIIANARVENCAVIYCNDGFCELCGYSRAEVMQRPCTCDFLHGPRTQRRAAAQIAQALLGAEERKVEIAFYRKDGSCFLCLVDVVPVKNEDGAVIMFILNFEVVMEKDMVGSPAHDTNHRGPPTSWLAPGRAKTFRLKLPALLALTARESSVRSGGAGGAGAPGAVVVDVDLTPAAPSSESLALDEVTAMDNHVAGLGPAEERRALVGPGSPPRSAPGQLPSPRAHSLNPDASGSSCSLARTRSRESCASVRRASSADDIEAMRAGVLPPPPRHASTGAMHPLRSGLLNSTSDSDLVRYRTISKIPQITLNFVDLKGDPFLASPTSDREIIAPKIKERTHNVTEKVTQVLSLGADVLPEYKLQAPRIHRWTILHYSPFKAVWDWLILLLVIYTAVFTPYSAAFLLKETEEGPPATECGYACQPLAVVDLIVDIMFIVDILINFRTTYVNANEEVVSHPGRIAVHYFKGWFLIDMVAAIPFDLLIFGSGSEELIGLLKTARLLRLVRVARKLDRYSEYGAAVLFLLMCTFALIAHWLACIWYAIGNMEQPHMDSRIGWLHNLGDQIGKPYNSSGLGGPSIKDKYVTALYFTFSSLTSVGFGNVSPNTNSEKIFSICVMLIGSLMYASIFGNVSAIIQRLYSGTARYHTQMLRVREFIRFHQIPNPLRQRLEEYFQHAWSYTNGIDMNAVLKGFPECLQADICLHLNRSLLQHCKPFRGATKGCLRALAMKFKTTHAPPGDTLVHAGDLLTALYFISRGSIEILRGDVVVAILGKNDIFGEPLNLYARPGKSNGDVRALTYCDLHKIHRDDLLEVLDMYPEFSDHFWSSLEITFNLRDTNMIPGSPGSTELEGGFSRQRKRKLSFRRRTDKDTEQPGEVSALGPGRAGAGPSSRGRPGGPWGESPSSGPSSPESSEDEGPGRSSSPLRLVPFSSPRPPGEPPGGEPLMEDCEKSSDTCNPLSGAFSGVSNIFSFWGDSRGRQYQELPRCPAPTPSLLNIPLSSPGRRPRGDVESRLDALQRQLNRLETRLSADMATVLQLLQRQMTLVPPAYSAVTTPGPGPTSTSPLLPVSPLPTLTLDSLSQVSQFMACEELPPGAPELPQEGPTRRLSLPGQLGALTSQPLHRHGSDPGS

SMILES | IC50 [µM]
CO[C@H]1CC[C@@]2(C)[C@@H](C1)C[C@@H](N1CCC[C@@H](N)C1)[C@@H]2Oc1ccc(C#N)cc1 | > 30
CO[C@@H]1CC[C@@]2(C)[C@@H](C1)C[C@@H](N1CCC[C@@H](N)C1)[C@@H]2Oc1ccc(C#N)cc1 | > 30
C[C@]12CCCC[C@H]1C[C@@H](N1CCC[C@@H](N)C1)[C@@H]2Oc1ccc(C#N)cc1 | 7.7
C[C@]12CCC(=O)C[C@H]1C[C@@H](N1CCC[C@@H](N)C1)[C@@H]2Oc1ccc(C#N)cc1 | > 100
N#Cc1ccc(O[C@@H]2[C@@H]3[C@H](C[C@H]2N2CCC[C@@H](N)C2)[C@@H]2CC(=O)[C@H]3C2)cc1 | 17
C[C@]12CCC(F)=C[C@H]1C[C@@H](N1CCC[C@@H](N)C1)[C@@H]2Oc1ccc(C#N)cc1 | 8.6
CN(C)C(=O)/C=C1\CC[C@@]2(C)[C@@H](C1)C[C@@H](N1CCC[C@@H](N)C1)[C@@H]2Oc1ccc(C#N)cc1 (mixture of isomers) | > 30
N#Cc1ccc(O[C@@H]2C3CCC(=O)[C@@H]3C[C@H]2N2CCC[C@@H](N)C2)cc1 (single isomer, unassigned) | > 30

target: Sodium channel protein type 5 subunit alpha (Homo sapiens, UniProt Q14524); test: Inhibition of human Nav1.5 expressed in HEK293 cells at -80 mV holding potential after 5 mins by patch clamp assay; type: cell-based; settings: not given
Sequence (Q14524 whole entry): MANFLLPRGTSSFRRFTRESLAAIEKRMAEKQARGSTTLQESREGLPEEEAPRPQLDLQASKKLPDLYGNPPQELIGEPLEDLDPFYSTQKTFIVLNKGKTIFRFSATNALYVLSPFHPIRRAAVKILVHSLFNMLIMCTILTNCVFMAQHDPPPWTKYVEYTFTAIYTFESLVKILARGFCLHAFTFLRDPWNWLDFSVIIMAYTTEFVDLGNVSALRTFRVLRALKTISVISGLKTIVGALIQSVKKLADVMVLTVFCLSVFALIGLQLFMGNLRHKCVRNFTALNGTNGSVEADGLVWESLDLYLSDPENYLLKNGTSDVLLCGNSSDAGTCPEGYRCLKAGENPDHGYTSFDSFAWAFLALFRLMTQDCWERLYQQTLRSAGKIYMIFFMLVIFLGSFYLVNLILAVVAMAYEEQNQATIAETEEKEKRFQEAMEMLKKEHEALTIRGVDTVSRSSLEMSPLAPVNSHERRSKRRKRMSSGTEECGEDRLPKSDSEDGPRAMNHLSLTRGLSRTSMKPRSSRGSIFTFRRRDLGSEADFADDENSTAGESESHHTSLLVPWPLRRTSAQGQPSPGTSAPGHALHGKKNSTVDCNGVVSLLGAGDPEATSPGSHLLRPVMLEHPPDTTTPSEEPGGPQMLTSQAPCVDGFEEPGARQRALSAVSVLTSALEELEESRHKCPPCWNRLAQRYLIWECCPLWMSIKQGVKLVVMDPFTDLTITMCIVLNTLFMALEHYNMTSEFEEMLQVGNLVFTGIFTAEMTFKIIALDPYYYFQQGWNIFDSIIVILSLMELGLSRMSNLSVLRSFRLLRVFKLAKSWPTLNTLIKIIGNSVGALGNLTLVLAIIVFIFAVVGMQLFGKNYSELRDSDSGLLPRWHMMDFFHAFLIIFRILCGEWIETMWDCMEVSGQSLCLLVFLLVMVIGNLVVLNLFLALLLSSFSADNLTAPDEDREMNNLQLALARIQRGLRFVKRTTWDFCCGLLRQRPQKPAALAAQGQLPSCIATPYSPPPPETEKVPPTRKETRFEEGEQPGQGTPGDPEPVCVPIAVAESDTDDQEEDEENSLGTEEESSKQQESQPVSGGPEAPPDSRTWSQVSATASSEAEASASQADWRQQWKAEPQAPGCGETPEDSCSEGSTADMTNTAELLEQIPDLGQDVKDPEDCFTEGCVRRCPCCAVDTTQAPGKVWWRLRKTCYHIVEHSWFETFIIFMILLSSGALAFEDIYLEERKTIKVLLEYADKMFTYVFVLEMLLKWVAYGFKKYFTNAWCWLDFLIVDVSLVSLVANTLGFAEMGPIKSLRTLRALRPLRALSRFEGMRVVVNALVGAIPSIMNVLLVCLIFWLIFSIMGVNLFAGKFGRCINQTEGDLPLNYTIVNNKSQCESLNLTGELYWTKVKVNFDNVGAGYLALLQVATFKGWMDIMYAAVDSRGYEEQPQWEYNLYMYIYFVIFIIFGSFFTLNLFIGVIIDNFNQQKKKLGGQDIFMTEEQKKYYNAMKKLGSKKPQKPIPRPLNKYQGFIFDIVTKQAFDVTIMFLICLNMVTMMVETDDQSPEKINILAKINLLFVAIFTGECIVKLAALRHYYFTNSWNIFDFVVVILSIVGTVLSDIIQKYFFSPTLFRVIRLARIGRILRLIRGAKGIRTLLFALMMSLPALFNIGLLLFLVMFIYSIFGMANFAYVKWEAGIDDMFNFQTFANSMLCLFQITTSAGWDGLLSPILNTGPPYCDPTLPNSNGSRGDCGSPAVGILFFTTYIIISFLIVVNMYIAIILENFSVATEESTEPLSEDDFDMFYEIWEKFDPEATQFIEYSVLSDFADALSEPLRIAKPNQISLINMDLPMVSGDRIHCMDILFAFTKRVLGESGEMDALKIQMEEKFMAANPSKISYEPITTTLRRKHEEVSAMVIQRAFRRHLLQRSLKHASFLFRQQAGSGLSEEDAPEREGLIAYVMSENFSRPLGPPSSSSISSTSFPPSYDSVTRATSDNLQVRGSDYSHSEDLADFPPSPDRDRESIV

SMILES | IC50 [µM]
CO[C@H]1CC[C@@]2(C)[C@@H](C1)C[C@@H](N1CCC[C@@H](N)C1)[C@@H]2Oc1ccc(C#N)cc1 | > 30
CO[C@@H]1CC[C@@]2(C)[C@@H](C1)C[C@@H](N1CCC[C@@H](N)C1)[C@@H]2Oc1ccc(C#N)cc1 | > 30
C[C@]12CCCC[C@H]1C[C@@H](N1CCC[C@@H](N)C1)[C@@H]2Oc1ccc(C#N)cc1 | 18
C[C@]12CCC(=O)C[C@H]1C[C@@H](N1CCC[C@@H](N)C1)[C@@H]2Oc1ccc(C#N)cc1 | > 300
N#Cc1ccc(O[C@@H]2[C@@H]3[C@H](C[C@H]2N2CCC[C@@H](N)C2)[C@@H]2CC(=O)[C@H]3C2)cc1 | > 100
C[C@]12CCC(F)=C[C@H]1C[C@@H](N1CCC[C@@H](N)C1)[C@@H]2Oc1ccc(C#N)cc1 | > 30
CN(C)C(=O)/C=C1\CC[C@@]2(C)[C@@H](C1)C[C@@H](N1CCC[C@@H](N)C1)[C@@H]2Oc1ccc(C#N)cc1 (mixture of isomers) | > 100
N#Cc1ccc(O[C@@H]2C3CCC(=O)[C@@H]3C[C@H]2N2CCC[C@@H](N)C2)cc1 (single isomer, unassigned) | > 100

organism: Homo sapiens; test: Selectivity ratio of IC50 for human Nav1.5 expressed in HEK293 cells to IC50 for human TRPC6 expressed in HEK293 cells; type: cell-based; settings: not given

SMILES | Ratio IC50
C[C@]12CCCC[C@H]1C[C@@H](N1CCC[C@@H](N)C1)[C@@H]2Oc1ccc(C#N)cc1 | > 200

test system: not listed separately; test: Cmax in mouse at 10 mg/kg, po; type: ADME, organism-based; design: dose 10 mg/kg, route oral; settings: in vivo

SMILES | Cmax [nM]
C[C@]12CCC(=O)C[C@H]1C[C@@H](N1CCC[C@@H](N)C1)[C@@H]2Oc1ccc(C#N)cc1 | 260

test system: not listed separately; test: AUC in mouse at 10 mg/kg, po; type: ADME, organism-based; settings: in vivo

SMILES | AUC [µM·h]
C[C@]12CCC(=O)C[C@H]1C[C@@H](N1CCC[C@@H](N)C1)[C@@H]2Oc1ccc(C#N)cc1 | 1

test system: not listed separately; test: Half life in mouse at 10 mg/kg, po; type: ADME, organism-based; settings: in vivo

SMILES | half-life [min]
C[C@]12CCC(=O)C[C@H]1C[C@@H](N1CCC[C@@H](N)C1)[C@@H]2Oc1ccc(C#N)cc1 | 174

test system: not listed separately; test: Clearance in mouse at 10 mg/kg, iv; type: ADME, organism-based; settings: in vivo

SMILES | clearance [mL/min/kg]
C[C@]12CCC(=O)C[C@H]1C[C@@H](N1CCC[C@@H](N)C1)[C@@H]2Oc1ccc(C#N)cc1 | 180

test system: not listed separately; test: Volume of distribution in mouse at 10 mg/kg, iv; type: ADME, organism-based; settings: in vivo

SMILES | Vd [L/kg]
C[C@]12CCC(=O)C[C@H]1C[C@@H](N1CCC[C@@H](N)C1)[C@@H]2Oc1ccc(C#N)cc1 | 24

test system: not listed separately; test: Oral bioavailability in mouse at 10 mg/kg; type: ADME, organism-based; settings: in vivo

SMILES | bioavailability [%]
C[C@]12CCC(=O)C[C@H]1C[C@@H](N1CCC[C@@H](N)C1)[C@@H]2Oc1ccc(C#N)cc1 | 50

test system: not listed separately; test: Metabolic stability in mouse liver microsomes assessed as parent compound remaining after 0.5 hrs; type: ADME, microsome; settings: read-out: Stability

SMILES | remaining at 0.5 h [%]
C[C@]12CCC(=O)C[C@H]1C[C@@H](N1CCC[C@@H](N)C1)[C@@H]2Oc1ccc(C#N)cc1 | 96

test system: not listed separately; test: Fraction unbound in mouse plasma; type: ADME, cell-free; settings: not given

SMILES | fraction unbound
C[C@]12CCC(=O)C[C@H]1C[C@@H](N1CCC[C@@H](N)C1)[C@@H]2Oc1ccc(C#N)cc1 | > 0.3

test system: not listed separately; test: Solubility of the compound in Japanese pharmacopoeia first fluid at pH 1.2; type: physicochemical; settings: not given

SMILES | solubility [µg/mL]
C[C@]12CCC(=O)C[C@H]1C[C@@H](N1CCC[C@@H](N)C1)[C@@H]2Oc1ccc(C#N)cc1 | 730 (≈ 1990 µM)

test system: not listed separately; test: Solubility of the compound in Japanese pharmacopoeia second fluid at pH 6.8; type: physicochemical; settings: not given

SMILES | solubility [µg/mL]
C[C@]12CCC(=O)C[C@H]1C[C@@H](N1CCC[C@@H](N)C1)[C@@H]2Oc1ccc(C#N)cc1 | 630 (≈ 1710 µM)

organism: Homo sapiens; test: Selectivity ratio of IC50 for human ERG expressed in CHOK1 cells to IC50 for human TRPC6 expressed in HEK293 cells; type: cell-based; settings: not given

SMILES | Ratio IC50
C[C@]12CCCC[C@H]1C[C@@H](N1CCC[C@@H](N)C1)[C@@H]2Oc1ccc(C#N)cc1 | > 200
